Legend:
Format in all cases: cell-based
[1] = tested on: HCV 1a RLuc cells (dicistronic genotype 1a H77 replicon, RLuc reporter); test: microbe, parasite or virus in culture; conditions: Hepatitis C virus, genotype 1a H77 RLuc replicon; read-out: 1a
Procedure, shortened: (§1)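 Renilla luciferase HCV replicon cells: dicistronic 1b Con1, 1a H77 or 2a JFH-1 replicons, or a JFH-1 chimera carrying J6 NS5A (M31 present). Compound in DMSO serial dilutions, 72 h incubation, then lysis and luciferase read. EC50 by non-linear regression.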

[2] = tested on: HCV 1b RLuc cells (dicistronic genotype 1b Con1 replicon, RLuc reporter); test: microbe, parasite or virus in culture; conditions: Hepatitis C virus, read-out: 1b (nM)
Procedure, shortened: as §1

[3] = tested on: HCV 2a JFH-1 Rluc cells (dicistronic genotype 2a JFH-1 replicon, RLuc reporter); test: microbe, parasite or virus in culture; conditions: Hepatitis C virus, genotype 2a JFH-1 RLuc replicon; read-out: 2a JFH
Procedure, shortened: as §1

[4] = tested on: HCV 2b Rluc cells (NS5A chimeric genotype 2a JFH-1 replicon with genotype 2b MD2b-1 NS5A gene, M31 present); test: microbe, parasite or virus in culture; conditions: Hepatitis C virus, read-out: 2b
Procedure, shortened: (§2)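 Replicon cells stably carrying the listed RLuc-encoding dicistronic replicons were seeded and treated with DMSO serial dilutions of compound (10 mM stocks) diluted into culture medium. After 72 h, cells were lysed and Renilla luciferase activity measured. EC50 was derived by non-linear regression.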

[5] = tested on: HCV 3a RLuc cells (NS5A chimeric genotype 1b Con1 replicon with consensus genotype 3a NS5A gene); test: microbe, parasite or virus in culture; conditions: Hepatitis C virus, read-out: 3a, genotype 3a NS5A chimeric replicon
Procedure, shortened: as §2

[6] = tested on: Q30R in genotype 1a NS5A, 1a Rluc replicon transfected into Huh-7 cured-51 cells; test: HCV replicon assay, resistance mutant 1a Q30R; conditions: Hepatitis C virus, Huh-7, read-out: 1a Q30R
Procedure: Evaluation of cell-based anti-HCV activity: Antiviral potency (EC50) was determined using a Renilla luciferase (RLuc)-based HCV replicon reporter assay. To perform the assay for genotype 1 and 2a JFH-1, HCV 1b RLuc cells (harboring a dicistronic genotype 1b Con1 replicon that encodes a RLuc reporter), or HCV 1a RLuc cells (harboring a dicistronic genotype 1a H77 replicon that encodes a RLuc reporter), or HCV 2a JFH-1 Rluc cells (harboring a dicistronic genotype 2a JFH-1 replicon that encodes a RLuc reporter) were dispensed into 384-well plates. To perform the assay for genotype 2a (with M31 present) or 2b, HCV 2a Rluc or 2b Rluc cells (both with M31 present) harboring a dicistronic NS5A chimeric genotype 2a JFH-1 replicon that encodes a RLuc reporter and either genotype 2a J6 strain NS5A gene or genotype 2b MD2b-1 NS5A gene (based on Los Alamos HCV database isolates, both with M31 present) respectively, were dispensed into 384-well plates. To perform the assay for genotype 3 and 4, HCV 3a RLuc or 4a Rluc cells harboring a dicistronic NS5A chimeric genotype 1b Con1 replicon that encodes a RLuc reporter and either a consensus genotype 3a NS5A gene or genotype 4a NS5A gene (based on Los Alamos HCV database isolates) respectively, were dispensed into 384-well plates. Compounds were re-suspended in DMSO at a concentration of 10 mM and serially diluted in DMSO either manually or using an automated pipeting instrument. Serially diluted compounds were mixed with cell culture media and added to the seeded cells. […] 72 hours later, cells were lysed and Renilla luciferase activity quantified as recommended by the manufacturer (Promega-Madison, Wis.). Non-linear regression was performed to calculate EC50 values.
To determine the antiviral potency (EC50) against resistance mutants, resistance mutations, including M28T, Q30R, Q30H, L31M, and Y93C in genotype 1a NS5A and Y93H in genotype 1b NS5A, were introduced individually into either 1a Rluc or 1b Rluc replicons described above by site directed mutagenesis. Replicon RNA of each resistant mutant was transfected into Huh-7 cured-51 cells and antiviral potency was determined on these transfected cells as described above.

[7] = tested on: HCV 2a Rluc cells (NS5A chimeric genotype 2a JFH-1 replicon with genotype 2a J6 strain NS5A gene, M31 present); test: HCV replicon reporter assay, genotype 2a J6 (M31 present); conditions: Hepatitis C virus, read-out: 2a J6
Procedure, shortened: as §1

Compound	EC50 [1]	EC50 [2]	EC50 [3]	EC50 [4]	EC50 [5]	EC50 [6]	EC50 [7]
COC[C@H]1C[C@@H](c2ncc(-c3ccc4c(c3)COc3cc5c(cc3-4)CCc3nc([C@@H]4CCCN4C(=O)[C@@H](NC(=O)OC)C(C)C)[nH]c3-5)[nH]2)N(C(=O)[C@H](NC(=O)OC)c2ccccc2)C1 [Example 606]	0.001 to 0.999 nM	0.034 nM	0.001 to 0.999 nM	0.001 to 0.999 nM	0.001 to 0.99 nM	0.001 to 0.999 nM	0.001 to 0.999 nM
CC[C@H](C)[C@H](NC(=O)OC)C(=O)N1C[C@@H](C)C[C@H]1c1ncc(-c2ccc3c(c2)COc2cc4c(ccc5nc([C@@H]6C[C@H](COC)CN6C(=O)[C@H](NC(=O)OC)c6ccccc6)[nH]c54)cc2-3)[nH]1 [Example 639]	0.001 to 0.999 nM	0.011 nM	0.001 to 0.999 nM	0.001 to 0.999 nM	0.001 to 0.99 nM	0.001 to 0.999 nM	0.001 to 0.999 nM
COC[C@H]1C[C@@H](c2nc3ccc4cc5c(cc4c3[nH]2)OCc2cc(-c3cnc([C@@H]4CC[C@H](C)N4C(=O)[C@@H](NC(=O)OC)C(C)C)[nH]3)ccc2-5)N(C(=O)[C@@H](NC(=O)OC)[C@@H](C)OC)C1 [Example 615]	0.001 to 0.999 nM	0.019 nM	0.001 to 0.999 nM	0.001 to 0.999 nM	0.001 to 0.99 nM	0.001 to 0.999 nM	0.001 to 0.999 nM
COC[C@H]1C[C@@H](c2ncc(-c3ccc4c(c3)COc3cc5c(ccc6nc([C@@H]7C[C@H]8CC8N7C(=O)[C@H](NC(=O)OC)c7ccccc7)[nH]c65)cc3-4)[nH]2)N(C(=O)[C@@H](NC(=O)OC)C(C)C)C1 (stereo partly drawn) [Example 601]	0.001 to 0.999 nM	0.014 nM	0.001 to 0.999 nM	0.001 to 0.999 nM	0.001 to 0.99 nM	0.001 to 0.999 nM	0.001 to 0.999 nM
CC#Cc1cc2nc([C@@H]3CCCN3C(=O)[C@@H](NC(=O)OC)C(C)C)[nH]c2c2ccc(-c3ccc4c(ccc5nc([C@@H]6C[C@H](COC)CN6C(=O)[C@H](N)c6ccccc6)[nH]c54)c3)cc12 [Example 593]	0.001 to 0.999 nM	0.014 nM	0.001 to 0.999 nM	1 to 44 nM	0.001 to 0.99 nM	1 to 44 nM	0.001 to 0.999 nM
CC[C@H](C)[C@H](NC(=O)OC)C(=O)N1[C@@H](C)CC[C@H]1c1ncc(-c2ccc3c(c2)COc2cc4c(ccc5nc([C@@H]6C[C@H](COC)CN6C(=O)[C@H](NC(=O)OC)c6ccccc6)[nH]c54)cc2-3)[nH]1 [Example 637]	0.001 to 0.999 nM	–	0.001 to 0.999 nM	0.001 to 0.999 nM	0.001 to 0.99 nM	0.001 to 0.999 nM	0.001 to 0.999 nM
COC[C@H]1C[C@@H](c2ncc(-c3ccc4c(c3)COc3cc5c(cc3-4)CCc3nc([C@@H]4CC[C@H](C)N4C(=O)[C@@H](NC(=O)OC)C(C)C)[nH]c3-5)[nH]2)N(C(=O)[C@H](NC(=O)OC)c2ccccc2)C1 [Example 608]	0.001 to 0.999 nM	0.017 nM	0.001 to 0.999 nM	0.001 to 0.999 nM	–	0.001 to 0.999 nM	0.001 to 0.999 nM
CC[C@H](C)[C@H](NC(=O)OC)C(=O)N1C[C@@H](COC)C[C@H]1c1nc2ccc3cc4c(cc3c2[nH]1)OCc1cc(-c2cnc([C@@H]3CC[C@H](C)N3C(=O)[C@@H](NC(=O)OC)[C@@H](C)CC)[nH]2)ccc1-4 [Example 597]	0.001 to 0.999 nM	0.005 nM	0.001 to 0.999 nM	0.001 to 0.999 nM	0.001 to 0.99 nM	0.001 to 0.999 nM	0.001 to 0.999 nM
COC[C@H]1C[C@@H](c2ncc(-c3ccc4c(c3)COc3cc5c(ccc6nc([C@@H]7CC[C@H](C)N7C(=O)[C@@H](NC(=O)OC)C(C)C)[nH]c65)cc3-4)[nH]2)N(C(=O)[C@H](NC(=O)OC)c2ccccc2)C1 [Example 599]	0.001 to 0.999 nM	–	0.001 to 0.999 nM	0.001 to 0.999 nM	0.001 to 0.99 nM	0.001 to 0.999 nM	0.001 to 0.999 nM
COC(=O)N[C@H](C(=O)N1[C@@H](C)CC[C@H]1c1nc2ccc3cc4c(cc3c2[nH]1)OCc1cc(-c2cnc([C@@H]3C[C@H](C)CN3C(=O)[C@H](NC(=O)OC)c3ccccc3)[nH]2)ccc1-4)C(C)C [Example 609]	0.001 to 0.999 nM	0.005 nM	0.001 to 0.999 nM	0.001 to 0.999 nM	0.001 to 0.99 nM	0.001 to 0.999 nM	0.001 to 0.999 nM
COC[C@H]1C[C@@H](c2ncc(-c3ccc4c(c3)COc3cc5c(ccc6nc([C@@H]7CC[C@H](C)N7C(=O)[C@@H](NC(=O)OC)C(C)C)[nH]c65)cc3-4)[nH]2)N(C(=O)[C@@H](NC(=O)OC)C(C)C)C1 [Example 600]	0.001 to 0.999 nM	0.007 nM	0.001 to 0.999 nM	0.001 to 0.999 nM	–	0.001 to 0.999 nM	0.001 to 0.999 nM
COC(=O)N[C@H](C(=O)N1[C@@H](C)CC[C@H]1c1ncc(-c2ccc3c(c2)COc2cc4c(ccc5nc([C@@H]6CCCN6C(=O)[C@@H](NC(=O)OC)[C@@H](C)OC)[nH]c54)cc2-3)[nH]1)C(C)C [Example 603]	0.001 to 0.999 nM	–	0.001 to 0.999 nM	0.001 to 0.999 nM	0.001 to 0.99 nM	0.001 to 0.999 nM	0.001 to 0.999 nM
COC[C@H]1C[C@@H](c2nc3ccc4cc5c(cc4c3[nH]2)OCc2cc(-c3cnc([C@@H]4CC[C@H](C)N4C(=O)[C@@H](NC(=O)OC)C(C)C)[nH]3)ccc2-5)N(C(=O)[C@H](NC(=O)OC)c2ccccc2)C1 [Example 594]	0.001 to 0.999 nM	0.013 nM	0.001 to 0.999 nM	0.001 to 0.999 nM	0.001 to 0.99 nM	0.001 to 0.999 nM	0.001 to 0.999 nM
COC[C@H]1C[C@@H](c2nc3ccc4cc(-c5ccc6c(ccc7nc([C@@H]8CCCN8C(=O)[C@@H](NC(=O)OC)C(C)C)[nH]c76)c5)ccc4c3[nH]2)N(C(=O)[C@H](N)c2ccccc2)C1 [Example 598]	0.001 to 0.999 nM	0.022 nM	0.001 to 0.999 nM	0.001 to 0.999 nM	–	0.001 to 0.999 nM	0.001 to 0.999 nM
COC(=O)N[C@H](C(=O)N1[C@@H](C)CC[C@H]1c1ncc(-c2ccc3c(c2)COc2cc4c(ccc5nc([C@@H]6CCCN6C(=O)[C@H](NC(=O)OC)c6ccccc6)[nH]c54)cc2-3)[nH]1)C(C)C [Example 605]	0.001 to 0.999 nM	0.015 nM	0.001 to 0.999 nM	0.001 to 0.999 nM	0.001 to 0.99 nM	0.001 to 0.999 nM	0.001 to 0.999 nM
COC(=O)N[C@H](C(=O)N1[C@@H](C)CC[C@H]1c1nc2ccc3cc4c(cc3c2[nH]1)OCc1cc(-c2cnc([C@@H]3C[C@H](C)CN3C(=O)[C@@H](NC(=O)OC)[C@@H](C)OC)[nH]2)ccc1-4)C(C)C [Example 612]	0.001 to 0.999 nM	–	0.001 to 0.999 nM	0.001 to 0.999 nM	0.001 to 0.99 nM	0.001 to 0.999 nM	0.001 to 0.999 nM
COC[C@H]1C[C@@H](c2nc3c([nH]2)-c2cc4c(cc2CC3)-c2ccc(-c3cnc([C@@H]5CC[C@H](C)N5C(=O)[C@@H](NC(=O)OC)C(C)C)[nH]3)cc2CO4)N(C(=O)[C@H](NC(=O)OC)c2ccccc2)C1 [Example 614]	0.001 to 0.999 nM	–	0.001 to 0.999 nM	0.001 to 0.999 nM	0.001 to 0.99 nM	0.001 to 0.999 nM	0.001 to 0.999 nM
COC(=O)N[C@H](C(=O)N1C[C@@H](C)C[C@H]1c1ncc(-c2ccc3c(c2)COc2cc4c(ccc5nc([C@@H]6CC[C@H](C)N6C(=O)[C@@H](NC(=O)OC)C(C)C)[nH]c54)cc2-3)[nH]1)C(C)C [Example 613]	0.001 to 0.999 nM	–	0.001 to 0.999 nM	0.001 to 0.999 nM	0.001 to 0.99 nM	0.001 to 0.999 nM	0.001 to 0.999 nM

From patent US10344019B2 (priority 2010, dated 2019)
